Key:
[1] = system: Cyclin D1; test: Western blot of tumor homogenates of C57B1/6 mice; assay type: in vivo, mouse; settings: tumor of C57 mice
Method: (§1) Prior to immunoblot analysis, tumor segments stored at −80° C. were thawed, washed, minced and homogenized in lysis buffer (120 mM NaCl, 1.0% Triton X 100, 20 mM Tris-HCl, pH 7.5, 10% glycerol, 2 mM EDTA, Protease inhibitor cocktail, Roche) using a Polytron homogenization device. Lysates were incubated at 4° C. for 30 min and centrifuged at 14000 r.p.m. in an Eppendorf micro centrifuge for 15 min. Proteins were isolated in solublised form. Protein concentrations were measured by Bradford assay (Bio-Rad protein assay kit) and stored at −80° C. For immunobloting, 60 μg of total protein from the tumor lysates were used Proteins were resolved in a 10% SDS-polyacrylamide gel, transferred to the immobilon-P […] membrane and blocked with 5% (wt/v) non fat dry milk powder (Sigma) in TBST buffer (10 mM Tris pH 7.6, 150 mM NaCl and 0.1% Tween-20) for three hours at room temperature and then incubated with primary antibodies p53, pp53, p21, Cyclin D1, CDK4 and c-Myc in TBST for 3 h and with actin for 1 hour at room temperature. The membrane was incubated further with the secondary antibody HRP-conjugated (BD Bioscience) at 1:10000 dilution for 1 h at room temperature. Following each antibody incubation, the membrane was washed thoroughly with TBST buffer 3 times. The protein bands were visualized using the enhanced chemiluminescence substrate reaction (Pierce) according to the manufacturer's instructions using X-OMAT AR5 film (Kodak)

[2] = system: p21; test: Western blot of tumor homogenates of C57B1/6 mice; assay type: in vivo, mouse; settings: tumor of C57 mice
Method: as §1

[3] = system: pp53; test: Western blot of tumor homogenates of C57B1/6 mice; assay type: in vivo, mouse; settings: tumor of C57 mice
Method: as §1

[4] = system: p53; test: Western blot of tumor homogenates of C57B1/6 mice; assay type: in vivo, mouse; settings: tumor of C57 mice, compared with control
Method: as §1

[5] = system: CDK4; test: Western blot of tumor homogenates of C57B1/6 mice; assay type: in vivo, mouse; settings: tumor of C57 mice
Method: as §1

[6] = mouse, in vivo
Method: Next, we examined the effects of AECHL-1 on the growth of primary tumor allografts and xenografts of B16F10 cells growing in C57B1/6 mice and MCF-7 cells growing in athymic nude mice respectively. […] On this basis, we chose a dose that was 10-20% of this maximum tolerated dose or 50 and 100 μg/kg/day, i.p. or the doses which induced maximum cell death in vitro.

[7] = system: PC3 human prostate cancer cells; test: Cell viability (MTT) and proliferation ([3H]thymidine) assay; assay type: cell-based; settings: 12, 24 and 48 h, concentration and time dependent
Method: (§2) The cytotoxic effect of AECHL-1 on the HEK 293, B16F10, PC3, MCF 7 and MDA-MB-231 cells was measured by MTT assay as described in previous studies. The cells were dispensed in 96-well, flat bottom microtiter plates (Becton Dickinson Labware) at a density of 5×10^3 cells each well. […] MTT [3-(4,5-dimethylthiazol-2yl)-2,5-diphenyl tetrazolium bromide] solution (5 mg/ml in PBS) was added at the end of experiment to each well to a final concentration of 0.5 mg/ml, and the cultures were incubated for further 4 h. The resulting formazan crystals were dissolved in 100 μl dimethylsulfoxide (DMSO) and absorbance was measured in a microplate reader at 570 nm (Molecular Devices, Spectra MAX 250). The cytotoxic effect was expressed as a relative percentage of inhibition calculated as follows: Relative inhibition(%)=[(A570 control−A570 AECHL-1)A570 control]×100 Cell Proliferation Assay
(§3) Aliquots of complete medium containing 5×10^3 cells (B16F10, PC3, MDA-MB-231 and MCF-7 cells) were distributed into 96-well tissue culture plates. […] After 6 h incubation, 1 μCi [^3H]thymidine was added to each well. Cells were harvested after 24 and 48 hrs of treatment on a glass filter paper with a 96-well auto-harvester and the amount of incorporated [^3H]thymidine was determined with a β-counter (Canberra packard).

[8] = system: MDA-MB-231 human breast carcinoma; test: as above; assay type: cell-based; settings: 12, 24 and 48 h, concentration and time dependent
Method: as §2, §3

[9] = system: B16F10 mouse melanoma cells; test: as above; assay type: cell-based; settings: 12, 24 and 48 h, concentration and time dependent
Method: as §2, §3

[10] = system: MCF-7 human breast cancer; test: as above; assay type: cell-based
Method: as §2, §3

[11] = system: cellular microtubule network; test: Immunocytochemistry, microtubule network in MCF-7 cells; assay type: cell-based, human; settings: paclitaxel 1-20 μM, AECHL-1 2-40 μM, 24 h, confocal microscopy
Method: (§4) Immunocytochemistry was performed as described previously. […] Cells were incubated with primary anti-p53 antibodies (1:100; Abcam) and anti-α-tubulin antibodies (1:10000; Sigma chemical Co.) for 1 hour at room temperature. After washing with PBS, cells were incubated with CY2-conjugated secondary antibodies (1:200; Chemicon, Germany) and Alexa-conjugated secondary antibodies (1:10000; Sigma, St. Louis, Mo.) for 45 minutes and nuclear staining was done with DAPI. Images were captured under confocal microscope.
(§5) The tumor suppressor p53 plays a critical role in preventing human cancer formation. It translocates into the nucleus and works as a transcription factor by upregulating cell cycle regulatory proteins and induces cell cycle arrest and/or programmed cell death (apoptosis) (11). […] After 24 h of incubation, the p53 translocation in the nucleus (green fluorescence) and microtubule network (red fluorescence) was visualized by confocal microscopy.

[12] = system: B16F10 melanoma cells; test: In vivo allograft tumor model; parameters: species or system C57B1/6 mice; settings: for tumor weight to body weight ratio: after 12 days treatment, vs control (p<0.01); for tumor size reduced by / tumor volume on day 24: B16F10 allograft; for tumor size reduced by: day 18; for histological examination of tumor tissue: C57 mice
Method: The data reported for tumor volumes are expressed as mean±SEM. Statistical differences were determined by ANOVA and post test applied was Tukey-Kramer multiple comparison Test. For Tumor to body weight ratio post test applied was Dunnett multiple comparisons test.

[13] = system: p53; test: Immunocytochemistry, p53 translocation in MCF-7 cells; assay type: cell-based, human; settings: AECHL-1 2-40 μM, 24 h, confocal microscopy
Method: as §4, §5

With C=C1C(OCC)C2(O)OCC34C(=C(C)c5c(C)cc(O)c(OCC)c5C23)OC(=O)C(OC(=O)C(C)(O)CC)C14 (stereo not drawn) [AECHL-1] the “expression of cyclin D1” value [1] was “reduced the expression”, the “expression of p21” value ([2]; 50 μg) was “decrease” and the “expression of p21” value ([2]; 100 μg) was “increased”. The “phosphorylation of p53 (pp53)” value ([3]; 50 μg) was “increasing”, the “phosphorylation of p53 (pp53)” value ([3]; 100 μg) was “decreased” and the p53 protein expression ([4]; 50 μg) was “increasing expression”. The p53 protein expression ([4]; 100 μg) was “increasing expression”, the “expression of CDK4” value [5] was “reduced the expression” and the maximum tolerated dose [6] was 500 μg/mice. The “percent viability and proliferation of the tumor cells” value (“percent viability and proliferation” for short) [7] was “significantly inhibited”, the “percent viability and proliferation” value [8] was “significantly inhibited” and the “percent viability and proliferation” value [9] was “significantly inhibited”. The “percent viability and proliferation” value ([10]; MCF-7, 12, 24 and 48 h, concentration and time dependent) was “significantly inhibited”, the “inhibitory effect compared with reference drugs” value ([10]; MCF-7 cells, 10 μM, 48 h) was “stronger than that of Paclitaxel, or Cisplatin” and the “effect on microtubule network” value [11] was “thickening and increased density of microtubules”. For the same compound, the “tumor weight to body weight ratio” value ([12]; 50 μg) was “significant reduction”, the “tumor weight to body weight ratio” value ([12]; 100 μg) was “significant reduction” and the “tumor size reduced by” value ([12]; 50 μg intra-tumor for 12 days) was 44.303±5.20%. The “tumor volume on day 24” value ([12]; 50 μg) was “increased”, the “tumor size reduced by” value ([12]; 100 μg intra-tumor for 12 days) was 51.014±1.27% and the “tumor volume on day 24” value ([12]; 100 μg) was “increased”. For the same compound, the “histological examination of tumor tissue” value ([12]; 50 μg) was “Tumor cell density was found to be decreased with occurrence of picnotic/necrotic cells in the center of the tumor”, the “histological examination of tumor tissue” value ([12]; 100 μg) was “increase in necrotic nuclei through out the tumor area, with disappearance of neovasulization and hemorrhagic areas” and the “p53 translocation in the nucleus” value [13] was “translocation of the p53 into the nucleus”.
